The source of these data is patent publication US6891062B2, “Pharmaceutical composition for treatment of diseases associated with decrease in bone mass” (Ono Pharmaceutical Co., Ltd., priority 1999, dated 2005).

This assay deals with Beagle/CSK strain dogs. Description: Promoting action on bone formation: determination of bone area of femur. The format is in vivo, dog. The settings on record: for bone area: dog femur, 4 weeks. An excerpt:
Beagle/CSK strain dogs of 6-month old were used (n=3 to 6 per group). Into a physical saline solution, each (11 α, 15 α, 13E)-9-oxo-11,15-dihydroxy-16-(3-methoxymethylphenyl)-17,18,19,20-tetranor-5-t hiaprost-13-enoic acid methyl ester (methyl ester of a compound of the formula (IE)) α-cyclodextrin clathrate (containing rate of an active ingredient in α-cyclodextrin clathrate form is 25% w/w), (11 α, 15 α, 13E)-9-oxo-11,15-dihydroxy-16-(3-methoxymethylphenyl)-17,18,19,20-tetranor-3,7-dithiaprost-13-enoic acid (a compound of the formula (IF)), (9β, 11 α, 15 α, 5Z, 13E)-9-chloro-11,15-dihydroxy-16-(3-ethoxymethylphenyl)-17,18,19,20-tetranorpro st-5,13-dienoic acid (a compound of the formula (IG)), (11 α, 15 α, 13E)-9-oxo-11,15-dihydroxy-16-(3-methoxymethylphenyl)-17,18,19,20-tetranorpro st-13-enoic acid (methyl ester of a compound of the formula (IH)), and (11 α, 15 α, 5Z, 13E)-9-oxo-11,15-dihydroxy-16-(3-ethoxymethylphenyl)-17,18,19,20-tetranorprost-5,13-dienoic acid (a compound of the formula (IJ)) was dissolved, and administered continuously to each animal at the effective doses of 2, 5, 10 and 25 μg/kg/day, for 24 hours per day during 4 weeks. Each test solution was administered into femoral vein through holding-catheter at the rate of 0.2 ml/kg/hour. An equal volume of physical saline solution was administered into an animal of the control group. After termination of administration, each animal was sacrificed to carry out autopsy. The separated femur was fixed with 10% buffered formalin solution and then was cut into a round slice with the width of 10 mm vertically to longitudinal axis at the 25 mm central side from trochlea sulcus. Pictures of bone surface near side of epiphysis were taken with camera connected to the computer from the constant distance, and then the resulted digital image was analyzed to determine bone area.

[1] abbreviates: 5 μg/kg/day continuous into femoral vein.

In turn, `CCOCc1cccc(C[C@H](O)/C=C/[C@H]2[C@H](O)CC(=O)[C@@H]2C/C=C\CCCC(=O)O)c1` [Invention compound (IJ), (11 α, 15 α, 5Z, 13E)-9-oxo-11,15-dihydroxy-16-(3-ethoxymethylphenyl)-17,18,19,20-tetranorprost-5,13-dienoic acid] displayed a bone area under setting [1] of 193.23 ± 11.32 mm^2.
Still for that read-out and setting: as for `COCc1cccc(C[C@H](O)/C=C/[C@H]2[C@H](O)CC(=O)[C@@H]2SCCCSCC(=O)O)c1` [Invention compound (IF), (11 α, 15 α, 13E)-9-oxo-11,15-dihydroxy-16-(3-methoxymethylphenyl)-17,18,19,20-tetranor-3,7-dithiaprost-13-enoic acid], the figure is 365.29 ± 73.63 mm^2; as for `COCc1cccc(C[C@H](O)/C=C/[C@H]2[C@H](O)CC(=O)[C@@H]2CCCCCCC(=O)O)c1` [Invention compound (IH), (11 α, 15 α, 13E)-9-oxo-11,15-dihydroxy-16-(3-methoxymethylphenyl)-17,18,19,20-tetranorpro st-13-enoic acid], 362.99 ± 89.56 mm^2.
Take `CCOCc1cccc(C[C@H](O)/C=C/[C@@H]2[C@@H](C/C=C\CCCC(=O)O)[C@H](Cl)C[C@H]2O)c1` [Invention compound (IG), (9β, 11 α, 15 α, 5Z, 13E)-9-chloro-11,15-dihydroxy-16-(3-ethoxymethylphenyl)-17,18,19,20-tetranorpro st-5,13-dienoic acid]: the bone area reads like this: (10 μg/kg/day continuous into femoral vein) 140.10 ± 28.08 mm^2; (25 μg/kg/day continuous into femoral vein) 289.38 ± 120.50 mm^2. The “increase of bone area compared with Untreated Group” value (dog, 25 μg/kg/day) worked out at 4.2 fold.
